Several values for one entry are separate records, joined by “and”; a condition that tells them apart may be missing. Identical values can stand only once. Like-named read-outs stand apart in the source and are kept apart here.
How the values were obtained:
[1] = target: T1, Aβ1-42 (Homo sapiens, UniProt P05067); experiment: biochemical; conditions: ± SEM; 50 μmol/L Aβ, 30°C, 24 h, ThT; highest tested concentration 50 μmol/L; read-out: IC50 Aβ1-42 self-aggregation
T1 construct: 1,1,1,3,3,3-hexafluoro-2-propanol pretreated Aβ1-42 samples (Bachem AG, Switzerland); purchased Bachem AG, Switzerland

[2] = tested on: hAChE-induced amyloid aggregation; design: method as in Piazzi et al. [2003], [2007]; conditions: at 100 μmol/L concentration; ref Piazzi et al. [2003], [2007]; cited from earlier work
[3] = target: T2, BuChE derived from human serum (Homo sapiens, UniProt P06276); experiment: biochemical; type: biochemical; conditions: ± SEM; 20 min preincubation at 37°C, pH 8.0; read-out: IC50 hBuChE
T2 construct: BuChE derived from human serum (Sigma Chemical, Milan, Italy); purchased Sigma Chemical, Milan, Italy; host or cells: human serum

[4] = tested on: THP-1 cells; experiment: Aβ1-42 oligomer binding to the cell surface (Congo red assay), THP-1 cells; type: cell-based, human; conditions: compound 30 μmol/L, Aβ1-42 oligomers 5 μmol/L, 30 min cotreatment
Description: (§1) SH-SY5Y and THP-1 cells were seeded in 96-well plates at 5 × 10^3 cells/well and 5 × 10^4 cells/well, respectively, for 24 h. At the end of incubation, the medium was changed with a fresh one with Aβ1-42 oligomer (5 μmol/L) and various compounds at 30 μmol/L for 30 min and then washed twice with PBS. The residual Aβ1-42 oligomer cell complex was stained with 1 μmol/L of Congo red (CR) in PBS for 20 min and measured with a spectrophotometer (TECAN®, GENios) at 540 nm (bound CR). CR values are reported as percent increases in treated cells versus untreated cells.

[5] = target: T3, BACE1 (Homo sapiens, UniProt P56817); experiment: Inhibition of BACE1 (FRET assay); type: biochemical; conditions: ± SEM, Panvera peptide substrate, pH 4.5
[6] = tested on: SH-SY5Y cells; experiment: Aβ1-42 oligomer-induced cytotoxicity, MTT assay, SH-SY5Y cells; type: cell-based; conditions: Homo sapiens; for IC50: 3 h, read-out: IC50 Aβ1-42 oligomer toxicity SH-SY5Y cells; for inhibition at 30 µM: read-out: toxicity inhibition
[7] = tested on: THP-1 cells; experiment: Aβ1-42 oligomer-induced cytotoxicity, MTT assay, THP-1 cells; type: cell-based; conditions: Homo sapiens, read-out: IC50 Aβ1-42 oligomer toxicity THP-1 cells
[8] = tested on: SH-SY5Y cells; experiment: Aβ1-42 oligomer binding to the cell surface (Congo red assay), SH-SY5Y cells; type: cell-based, human; conditions: compound 30 μmol/L, Aβ1-42 oligomers 5 μmol/L, 30 min cotreatment
Description: as §1

[9] = tested on: SH-SY5Y cells; experiment: Aβ1-42 oligomer-induced intracellular ROS formation (DCFH-DA, DHE); type: cell-based, human; conditions: 3–30 μmol/L, 3 h pretreatment, Aβ1-42 oligomers 5 μmol/L
Description: The intracellular hydrogen peroxide and superoxide anion formation induced by Aβ1-42 oligomer at SH-SY5Y cell level was determined using, respectively, the probe 2′,7′-dichlorodihydrofluorescein diacetate (DCFH-DA, λexc = 485 nm, λem = 535 nm), and dihydroethidium (DHE, λexc = 380 nm, λem = 445 nm). SH-SY5Y cells were cultured in BD Falcon™ 8-well Culture slides (surface area 0.7 cm^2/well) at 1 × 10^4 cells/well for 24 h. The cells were then treated for 3 h with various concentrations of compounds (3–30 μmol/L) at 37°C prior to the treatment of 3 h with Aβ1-42 oligomer (5 μmol/L). At the end of treatment, the cells were washed and incubated with DCFH-DA (5 μmol/L) or DHE (10 μmol/L) for 30 min in the dark. After removal of the probes, cells were washed with PBS and incubated with DMEM serum free for 1 h at 37°C. Intracellular ROS formation was measured under a fluorescence microscope (Zeiss Axio Imager M1). Fluorescence images were captured with an AxioVision image recording system computer. Four randomly selected areas with 50–100 cells in each were analyzed and the values obtained are expressed as fold increases in hydrogen peroxide and superoxide anion versus untreated cells.

[10] = tested on: SH-SY5Y cells; experiment: Aβ25-35 peptide-induced cytotoxicity, MTT assay, SH-SY5Y cells; conditions: 1–30 μmol/L, Aβ25-35 5 μmol/L, 3 h
[11] = tested on: THP-1 cells; experiment: Aβ1-42 oligomer-induced NO and TNFα release; type: cell-based, human; conditions: 30 μmol/L
Description: THP-1 cells were seeded in 96-well plates at 5 × 10^4 cells/well for 24 h. At the end of incubation, the medium was changed with a fresh one with AP2469 30 μmol/L for 3 h. The cells were then washed with PBS and incubated for a further 12 h with Aβ1-42 oligomer (5 μmol/L). The content of each well was then removed and centrifuged at 2500g for 10 min, and the supernatant was frozen at −20°C for the subsequent analysis of released NO and tumor necrosis factor alpha (TNFα). To determine the NO levels, 100 μL of supernatant was incubated with 100 μL of Griess reagent (Sigma Aldrich) in the dark at room temperature for 15 min. The intensity of the color that developed was then measured at 540 nm using a spectrophotometer (TECAN®, GENios). Values are reported as percent increases in treated cells versus untreated cells. The TNFα levels in 100 μL of supernatant were determined by Ray Bio® ELISA kit according to the manufacturer's instructions (Ray Biotech, Inc., GA). The concentration of TNFα levels was calculated from a TNFα standard curve standard of 25–6000 pg/mL and the values are reported as percent increases in treated cells versus untreated cells.

[12] = tested on: THP-1 cells; experiment: Aβ-induced toxicity (Aβ1-42 oligomers, Aβ25-35), MTT assay, THP-1 cells; type: cell-based, human; conditions: 1–30 μmol/L, Aβ 5 μmol/L, 3 h
[13] = tested on: SH-SY5Y cells; experiment: Total antioxidant activity in membrane and cytosolic fractions (ABTS decolorization); type: cell-based, human; conditions: SH-SY5Y treated 2 h, vs untreated cells
[14] = tested on: SH-SY5Y cells; experiment: t-BuOOH-induced intracellular ROS formation (DCFH-DA, DHE); type: cell-based, human; conditions: 3–30 μmol/L, 3 h pretreatment, t-BuOOH 50 μmol/L
Description: As above, the intracellular hydrogen peroxide and superoxide anion formation induced by tert-butyl hydroperoxide (t-BuOOH) at SH-SY5Y cell level was determined using, respectively, the probes DCFH-DA and DHE. Briefly, SH-SY5Y cells were cultured in 96-well microtiter plates at 3 × 10^4 cells/well for 24 h. The medium was then removed and the cells were treated for 3 h with various concentrations of compounds (3–30 μmol/L) at 37°C. After treatment, the cells were washed with PBS and then incubated with DCFH-DA (5 μmol/L) or DHE (10 μmol/L) in PBS at 37°C in 5% CO2 for 30 min. After removal of the probes and further washing, the cells were incubated with t-BuOOH (50 μmol/L) in PBS for 30 min. At the end of incubation, the green or red fluorescence of the cells from each well was measured with a spectrofluorometer (TECAN®, GENios). The results are expressed as fold increases in intracellular ROS evoked by exposure to t-BuOOH.

[15] = target: human recombinant AChE (Homo sapiens, UniProt P22303); experiment: biochemical; conditions: ± SEM; 20 min preincubation at 37°C, pH 8.0; read-out: IC50 hAChE
[16] = target: T3, BACE1; conditions: cited from earlier work
[17] = SH-SY5Y, ± SEM, 5 μmol/L Aβ1-42 oligomers, MTT, highest tested concentration 30 μmol/L
[18] = THP-1, ± SEM, 5 μmol/L Aβ1-42 oligomers, 3 h, MTT, highest tested concentration 30 μmol/L

T1 sequence (P05067 672-713 limits assumed): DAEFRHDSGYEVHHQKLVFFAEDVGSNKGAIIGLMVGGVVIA
T3 sequence (P56817 46-501): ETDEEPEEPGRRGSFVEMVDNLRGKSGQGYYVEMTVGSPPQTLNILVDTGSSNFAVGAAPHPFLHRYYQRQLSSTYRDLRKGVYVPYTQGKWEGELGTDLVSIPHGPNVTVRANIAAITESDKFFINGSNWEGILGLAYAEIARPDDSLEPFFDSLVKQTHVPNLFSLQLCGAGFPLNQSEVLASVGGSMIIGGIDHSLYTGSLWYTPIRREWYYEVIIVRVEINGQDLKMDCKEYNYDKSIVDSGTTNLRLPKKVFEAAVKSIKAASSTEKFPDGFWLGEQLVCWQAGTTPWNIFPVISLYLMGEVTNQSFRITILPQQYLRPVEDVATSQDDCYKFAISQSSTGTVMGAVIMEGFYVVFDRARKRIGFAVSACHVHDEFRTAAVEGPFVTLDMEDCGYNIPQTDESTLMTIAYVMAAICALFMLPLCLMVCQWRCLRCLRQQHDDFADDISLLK
T2 sequence (P06276 29-602): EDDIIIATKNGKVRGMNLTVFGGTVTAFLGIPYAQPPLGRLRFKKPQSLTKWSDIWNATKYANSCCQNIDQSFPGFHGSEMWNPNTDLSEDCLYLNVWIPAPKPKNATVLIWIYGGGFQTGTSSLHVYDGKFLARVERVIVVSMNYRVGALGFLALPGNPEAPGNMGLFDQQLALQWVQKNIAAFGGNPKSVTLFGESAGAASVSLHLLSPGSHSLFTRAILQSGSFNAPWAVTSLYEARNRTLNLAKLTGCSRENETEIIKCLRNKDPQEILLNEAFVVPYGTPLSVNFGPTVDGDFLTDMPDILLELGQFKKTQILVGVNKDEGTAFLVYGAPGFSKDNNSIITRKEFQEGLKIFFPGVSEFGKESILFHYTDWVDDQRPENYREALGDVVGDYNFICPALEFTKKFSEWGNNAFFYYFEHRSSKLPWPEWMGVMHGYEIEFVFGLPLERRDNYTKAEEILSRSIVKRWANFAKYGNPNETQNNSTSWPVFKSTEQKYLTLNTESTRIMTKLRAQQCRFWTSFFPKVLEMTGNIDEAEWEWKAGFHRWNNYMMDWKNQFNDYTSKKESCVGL
Chain of human recombinant AChE (P22303 32-614): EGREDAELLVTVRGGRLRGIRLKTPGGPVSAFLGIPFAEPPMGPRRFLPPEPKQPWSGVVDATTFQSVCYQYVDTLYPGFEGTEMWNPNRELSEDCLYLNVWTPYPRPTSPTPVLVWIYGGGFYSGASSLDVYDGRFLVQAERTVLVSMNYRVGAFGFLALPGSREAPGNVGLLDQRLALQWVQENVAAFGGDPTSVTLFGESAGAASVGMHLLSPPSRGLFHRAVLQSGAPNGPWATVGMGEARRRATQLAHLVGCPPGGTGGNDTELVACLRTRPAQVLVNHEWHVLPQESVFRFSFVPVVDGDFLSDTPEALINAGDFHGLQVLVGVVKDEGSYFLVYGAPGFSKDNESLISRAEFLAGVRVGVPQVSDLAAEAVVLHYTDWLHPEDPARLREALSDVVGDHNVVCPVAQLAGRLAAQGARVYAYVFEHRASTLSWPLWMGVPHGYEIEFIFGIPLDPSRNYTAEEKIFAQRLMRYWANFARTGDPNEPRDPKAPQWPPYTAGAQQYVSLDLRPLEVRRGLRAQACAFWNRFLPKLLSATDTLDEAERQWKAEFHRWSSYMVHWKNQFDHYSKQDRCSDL

Row | SMILES | IC50 [1] [µM] | inhibition of hAChE-induced amyloid aggregation [2] [%] | IC50 [3] [µM] | binding of Aβ1-42 oligomers with THP-1 cells (CR assay) [4] | IC50 [5] | IC50 [6, 17] [µM] | IC50 [7, 18] [µM] | binding of Aβ1-42 oligomers with SH-SY5Y cells (CR assay) [8] | cytotoxicity elicited by Aβ25-35 peptide in SH-SY5Y cells [10] | other results
1 | COc1cc2cc(-c3ccc(CN(C)Cc4ccccc4)cc3)c(=O)oc2cc1OC [AP2238, 3-(4-{[Benzyl(methyl)amino]methyl}-phenyl)-6,7-dimethoxy-2H-2-chromenone] | > 50 | 35 | – | – | – | – | – | – | – | –
2 | CCN(Cc1ccccc1)Cc1ccc(-c2cc3cc(OC)c(OC)cc3oc2=O)cc1 [AP2243] | > 50 | 38 | 118 ± 16 | did not modify | 0.24 ± 0.03 µM | > 30 | > 30 | did not modify | – | –
3 | CCN(Cc1ccccc1)Cc1ccc(-c2cc3cc(O)c(O)cc3oc2=O)cc1 [AP2469, 3-{4-[(Benzylethylamino)-methyl]phenyl}-6,7-dihydroxychromen-2-one] | 21.7 ± 3.4 | – | 124 ± 13 | significantly reduced | 6.5 µM and 6.49 µM | 7.5 ± 0.72 | 8.18 ± 0.51 | significantly reduced | dose-dependent decrease | Aβ1-42 oligomer-induced hydrogen peroxide and superoxide anion formation [9]: significantly inhibited; Aβ1-42 oligomer-induced TNFα release ([11]; ELISA): inhibited; Aβ1-42 oligomer-induced NO release ([11]; Griess reagent): reduced; Aβ-induced toxicity in THP-1 cells [12]: significant inhibitor effects; total antioxidant activity (TAA), membrane fraction ([13]; 3–30 μmol/L): significant only at the highest tested concentration; total antioxidant activity (TAA), cytosolic fraction ([13]; all tested concentrations (3–30 μmol/L)): significant TAA increase; inhibition at 30 µM ([6]; at 30 μmol/L, Aβ1-42 oligomers 5 μmol/L, SH-SY5Y cells): 93%; ROS formation induced by t-BuOOH [14]: significantly reduced; IC50 [15]: 8.6 ± 0.21 µM
4 | COc1ccc2c3c1O[C@H]1C[C@@H](O)C=C[C@@]31CCN(C)C2 [Galantamine, reference compound] | > 50 | – | – | – | – | – | – | – | dose-dependent decrease | IC50 ([6]; SH-SY5Y): 7.99 ± 0.91 µM; inhibition at 30 µM ([6]; SH-SY5Y): 58%; IC50 ([16]; not active at the highest tested concentration (5 μmol/L), ref Mancini et al. [2007], read-out: IC50 BACE1): > 5 µM; IC50 ([7]; THP-1, 3 h): > 30 µM
5 | c1ccc2c(NCCCCCCCNc3c4c(nc5ccccc35)CCCC4)c3c(nc2c1)CCCC3 [bis(7)-tacrine] | – | – | – | – | – | – | – | – | – | IC50 ([16]; noncompetitive BACE1 inhibitor, ref Fu et al. [2008], read-out: BACE1 inhibitory activity): 7.5 µM

Source: article PMC4184701 (Pharmacology Research & Perspectives, 2014)
